US20110230421A1, “FUSION PROTEINS OF APOPTIN-PROTEIN TR[…] OF CARBOXYL-TERMINUS OF EC-SOD” (priority 2008, published 2011)
Like-named read-outs stand apart in the source and are kept apart here.

Tests used:
[1] = tested on: Lewis lung carcinoma; assay type: in vivo, mouse; details: i.p. daily for 7-8 days, cyclophosphamide 20, Poly Arg-Apoptin 40, Apoptin-EC-SOD-PTD 10 mg/kgBW/day; for ratio of tumor inhibition: versus blank group mean tumor weight
Procedure: Four groups including a blank control, a positive control and a recombinant Apoptin-EC-SOD-PTD test group and a recombinant Poly Arg-Apoptin group were set for the experiment, and 8 animals were tested for each group. After inoculation of Lewis lung carcinoma cells, the blank control group was injected with saline water. Whereas, the positive control group was injected with cyclophosphamide solution (20 mg/kgBW/day). The two test groups were injected with the recombinant Apoptin-EC-SOD-PTD (10 mg/kgBW/day) which was purified, dialysed and sterile filtrated and recombinant Poly Arg-Apoptin (40 mg/kgBW/day), respectively.
1. Inoculation of carcinoma cell line: Six weeks old C57BU6 male mice with a weight of about 20 g were inoculated by armpit with 0.2 ml of Lewis lung carcinoma single cell suspension. After feeding for 3-4 days, tumor growth in the armpits of the mice was observed. Drug administration test would be initiated when the tumor grew to a size of several millimeters.
2. Administration: Drugs were administered by intraperitoneal injection, and the administrations were continued for 7-8 days. The mouse was weighed before daily administration.
3. Detecting ratio of tumor inhibition: After the drug administrations were stop for 2 days, the mice were sacrificed by breaking their necks. The tumor tissue was stripped from the body, weighted and calculated the ratio of tumor inhibition.
Ratio of tumor inhibition=(mean tumor weight of the blank group—mean tumor weight of the test group)/mean tumor weight of the blank group×100%.

[2] = tested on: HeLa cells; test: MTT survival of HeLa cells cultured in vitro, 24 h; assay type: cell-based; details: 100 μg/ml
Procedure: 1. The HeLa cells were cultured on the 96-well cell culture plate at 37° C. until the cell density reached to about 60%. Imidazole was removed from the recombinant Apoptin-EC-SOD-PTD sample isolated and purified after expressing by repeated dialysis. After sterile filtration, the protein was diluted by adding different volume of DMEM cell culture media. From the highest concentration of protein, the concentration was reduced by half dilution gradually until zero. And the solution without protein was used as the negative control; for each protein concentration group were selected 3-4 wells for parallel control. Meanwhile, the recombinant Apoptin protein isolated and purified from the prokaryotic expression system using the similar method was used as the control and conducted the same experimental operation. The two sets of samples were cultured for 24 h, drew culture media out and added the DMEM (100 μl) containing the 5 μg/ml of MTT, and then incubated for 4 hours at 37° C., drew the culture media out and added DMSO (100 μl) to dissolve the purple crystals, incubated for 10 min at 37° C. and measured its absorbance at 490 nm by a microplate reader. […]
2. Survival ratios of HeLa cells treated with different sample concentration were detected by MTT method.

Row | Molecule | weight of the tumor tissue X ± SD ([1]; tumor stripped 2 days after last dose) | ratio of tumor inhibition [1] [%] | ratio of tumor inhibition ([1]; listed as positive control) [%] | effect on the cell growth of HeLa [2]
1 | O=P1(N(CCCl)CCCl)NCCCO1 (stereo not shown) [cyclophosphamide] | 1.21 ± 0.119 | 47.4 | 47.4 | –
2 | recombinant Apoptin: recombinant Apoptin protein isolated and purified from the prokaryotic expression system, used as the control (protein, Chicken anemia virus, recombinant Apoptin protein isolated and purified from the prokaryotic expression system, used as the control) MNALQEDTPPGPSTVFRPPTSSRPLETPHCREIRIGIAGITITLSLCGCANARAPTLRSATADNSESTGFKNVPDLRTDQPKPPSKKRSCDPSEYRVSELKESLITTTPSRPRTAKRRIRL | – | – | – | not obvious
